From patent EP2221053A1, “Pharmaceutical composition comprising protein methyltransferase I inhibitors and its use for treating tumour diseases” (Albert-Ludwigs-Universität Freiburg, priority 2009, dated 2010)
Where two headings read alike, the source gives them in different places.

Tests used:
[1] = target: T1, SET7/9 (Homo sapiens, UniProt Q8WTS6); test: In vitro selectivity test against lysine methyltransferase; format: biochemical
T1 sequence (Q8WTS6 1-366): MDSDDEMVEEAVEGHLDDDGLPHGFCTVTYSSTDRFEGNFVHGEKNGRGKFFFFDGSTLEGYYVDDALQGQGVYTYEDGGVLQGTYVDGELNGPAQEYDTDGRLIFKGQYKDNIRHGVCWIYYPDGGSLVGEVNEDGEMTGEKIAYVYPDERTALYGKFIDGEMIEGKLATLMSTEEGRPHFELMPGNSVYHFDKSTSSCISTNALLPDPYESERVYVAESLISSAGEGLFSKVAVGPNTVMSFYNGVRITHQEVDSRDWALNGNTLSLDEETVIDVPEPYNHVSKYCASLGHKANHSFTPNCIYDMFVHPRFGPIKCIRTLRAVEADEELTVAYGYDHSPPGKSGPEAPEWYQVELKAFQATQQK
Description: Für die Enzymhemmung wurde ein Assay verwendet, der auf immobilisierten Oligopeptiden als Enzymsubstrate und den entsprechenden Enzymen beruht. Die Quantifizierung der Methylierung erfolgt über einen Antikörper gegen das Dimethylarginin und die Detektion über einen Europium gelabelten Sekundärantikörper. Die potentesten Verbindungen wurden ebenfalls in-vitro auf ihre Selektivität gegenüber SET7/9, einer Lysinmonomethyltransferase untersucht. Die Methodik der verwendeten Testverfahren ist im Detail in der Dissertation von Astrid Spannhoff, "Neue Testsysteme für Histonmethyltransferasen und Histondemethylasen", Albert-Ludwigs-Universität Freiburg, 2007 beschrieben. Der Offenbarungsgehalt dieser Arbeit wird durch Bezugnahme hier eingeschlossen.

[2] = target: T2, PRMT1 (Homo sapiens, UniProt Q99873); test: Target-based virtual screening combined with biochemical test, PRMT inhibition of known inhibitors
Target sequence in this assay (Q99873 whole entry): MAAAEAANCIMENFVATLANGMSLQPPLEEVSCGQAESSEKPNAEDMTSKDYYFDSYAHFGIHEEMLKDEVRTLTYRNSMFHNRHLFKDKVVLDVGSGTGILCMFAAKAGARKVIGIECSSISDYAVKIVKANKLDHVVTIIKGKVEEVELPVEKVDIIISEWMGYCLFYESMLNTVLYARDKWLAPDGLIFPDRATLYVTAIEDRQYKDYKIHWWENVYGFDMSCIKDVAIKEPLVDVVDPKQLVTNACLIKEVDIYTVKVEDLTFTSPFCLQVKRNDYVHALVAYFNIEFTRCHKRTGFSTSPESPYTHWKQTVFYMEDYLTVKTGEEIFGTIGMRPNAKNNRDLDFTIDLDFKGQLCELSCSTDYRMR

[3] = target: T2, PRMT1; conditions: in-vitro, Cheng et al.; cited from earlier work
Target sequence in this assay (Q99873 whole entry, species assumed): as the sequence (Q99873 whole entry) above

[4] = target: T1, SET7/9; conditions: as described, Cheng et al.; cited from earlier work

Row | IC50 [1] | Mode of inhibition (Docking- und Kompetitionsexperimente) ([2]; conclusion from docking and competition experiments) | IC50 ([2]; inhibitors of PRMT from target-based screening) | Molecule | IC50 [3] | Selektivität gegenüber der Lysinmethyltransferase SET7/9 [4]
1 | 11 µM | zum Sustrat kompetitive Verbindungen | 1700 nM | Allantodapson | – | –
2 | – | – | – | O.O.O.O=C([O-])c1ccccc1-c1c2cc(Br)c(=O)c(Br)c-2oc2c(Br)c([O-])c(Br)cc12.[Na+].[Na+] [AMI-5] | 1400 nM | dualer Inhibitor
3 | – | – | – | O=C(Nc1ccc2c(O)cc(S(=O)(=O)O)cc2c1)Nc1ccc2c(O)cc(S(=O)(=O)O)cc2c1 [AMI-1] | – | selektiv
